From paper PMC9891357 (Molecular Cancer Therapeutics, 2022)

Legend:
USP46 = USP46 (Homo sapiens, UniProt P62068); experiment: Ubiquigent DUBprofiler biochemical panel, […] inhibition at […]
USP12 = USP12 (Homo sapiens, UniProt O75317); experiment: as above
Chain of USP12 (O75317 whole entry): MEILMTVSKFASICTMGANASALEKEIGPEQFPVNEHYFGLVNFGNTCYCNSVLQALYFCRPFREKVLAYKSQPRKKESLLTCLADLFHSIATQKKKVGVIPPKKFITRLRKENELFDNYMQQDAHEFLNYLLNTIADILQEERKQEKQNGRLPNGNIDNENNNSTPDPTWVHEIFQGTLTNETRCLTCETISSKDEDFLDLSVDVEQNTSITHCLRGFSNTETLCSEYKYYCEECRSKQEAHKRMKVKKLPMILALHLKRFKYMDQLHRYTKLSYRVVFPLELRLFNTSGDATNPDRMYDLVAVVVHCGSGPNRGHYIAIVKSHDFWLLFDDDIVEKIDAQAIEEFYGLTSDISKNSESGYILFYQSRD
Chain of USP12 (Q8TAF3 whole entry partner): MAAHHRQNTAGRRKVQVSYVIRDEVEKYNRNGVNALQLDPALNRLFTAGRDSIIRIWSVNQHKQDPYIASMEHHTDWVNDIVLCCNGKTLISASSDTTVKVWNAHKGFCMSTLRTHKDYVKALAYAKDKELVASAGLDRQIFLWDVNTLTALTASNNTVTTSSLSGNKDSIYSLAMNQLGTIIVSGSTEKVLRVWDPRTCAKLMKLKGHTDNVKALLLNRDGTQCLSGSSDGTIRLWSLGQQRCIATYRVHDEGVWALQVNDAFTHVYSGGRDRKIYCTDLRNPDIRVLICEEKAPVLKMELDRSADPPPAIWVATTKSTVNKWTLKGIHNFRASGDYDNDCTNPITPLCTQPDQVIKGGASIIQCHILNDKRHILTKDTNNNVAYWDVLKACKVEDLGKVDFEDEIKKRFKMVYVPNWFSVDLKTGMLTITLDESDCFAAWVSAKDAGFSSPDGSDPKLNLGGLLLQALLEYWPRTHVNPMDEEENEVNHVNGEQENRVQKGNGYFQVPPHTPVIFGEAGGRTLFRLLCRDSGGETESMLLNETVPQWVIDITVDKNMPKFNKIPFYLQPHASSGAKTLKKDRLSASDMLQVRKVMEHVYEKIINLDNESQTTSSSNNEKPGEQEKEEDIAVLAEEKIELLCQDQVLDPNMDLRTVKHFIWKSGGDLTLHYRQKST

Chain of USP46 (P62068 whole entry): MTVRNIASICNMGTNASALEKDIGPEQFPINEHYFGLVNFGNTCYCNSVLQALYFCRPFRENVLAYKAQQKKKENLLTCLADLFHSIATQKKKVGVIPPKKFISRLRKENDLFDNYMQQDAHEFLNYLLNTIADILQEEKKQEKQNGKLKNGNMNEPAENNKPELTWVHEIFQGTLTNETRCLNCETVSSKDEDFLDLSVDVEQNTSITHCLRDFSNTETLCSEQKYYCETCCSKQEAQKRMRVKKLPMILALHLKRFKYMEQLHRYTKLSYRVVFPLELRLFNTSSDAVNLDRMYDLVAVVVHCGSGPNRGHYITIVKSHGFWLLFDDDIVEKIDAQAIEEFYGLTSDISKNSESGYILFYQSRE
Chain of USP46 (Q8TAF3 whole entry partner): as the sequence (Q8TAF3 whole entry partner) above

IC50 (USP46): ~ 10 μmol/L
IC50 (USP12): ~ 10 μmol/L
SMILES: CC(C)c1ccccc1-c1ncc2[nH]c(=O)n(Cc3ccc(-c4nc(C(F)(F)F)cn4C)cc3)c2n1 [I-138, 2-(2-isopropylphenyl)-9-(4-(1-methyl-4-(trifluoromethyl)-1H-imidazol-2-yl)benzyl)-7,9-dihydro-8H-purin-8-one]
